# Measured values as given in US7776863B2, “Methods of treating HIV infection” (priority 2004, dated 2010).
# pEC50: −log10 of the molar value.
# System: HIV-1 LAI
# Experiment: microbe, parasite or virus in culture
# Details: for Combination Indices at % HIV Inhibition (Confidence Interval) 50% / Combination Indices at % HIV Inhibition (Confidence Interval) 75% / Combination Indices at % HIV Inhibition (Confidence Interval) 90%: 95% confidence interval in parentheses; for Overall Result (combined anti-HIV effect): all ratios, MT-2 cells, HIV-1 LAI; for pEC50: Human immunodeficiency virus 1, MT2, 120 h
# Protocol: Virus and cell lines. The T-cell lines, MT-2 and PM-1 were obtained through the AIDS Research and Reference Reagent Program, NIAID, and were contributed by Dr. D. Richman and Dr. R. Gallo, respectively. Both cell lines were cultured in RPMI 1640 medium supplemented with 10% fetal bovine serum, 2 mM L-glutamine and sub-cultured twice a week. The LAI strain of HIV-1 was obtained from the Fred Hutchinson Cancer Research Center, and the Bal strain was from NIH. Both virus stocks were amplified and titered in MT-2 cells (LAI) and PM-1 cells (Bal) using a virus infectivity assay.
# Drug Susceptibility and Cytotoxicity Assays. For drug susceptibility assays, MT-2 cells were infected with HIV-1 LAI (or PM-1 cells with HIV-1 Bal) at an MOI of 0.005, and seeded into 96-well microtiter plates (0.1×10^6 cells/ml) containing serial dilutions of test compounds. […] Each drug ratio consisted of an array of 3-fold serial dilutions, and was performed in quadruplicate. The plates were incubated at 37° C./5% CO2. The MT-2 cells infected with HIV-1 LAI were incubated for 5 days. On day-five post-infection, 20 μl from each well was harvested and quantitated by a reverse transcriptase (RT) assay, or in samples involving non-nucleoside RT inhibitors, an MTS assay. The PM-1 cells infected with HIV-1 Bal and used for studying the combinations with CCR5 inhibitors were incubated for six days. On day-six post-infection, 20 μl from each well was harvested, 20- and 50-fold diluted and quantitated by p24 assay. Cytotoxicity assays were performed using uninfected cells, exposed to the same drug combinations, and incubated for six days. Cell viability was determined by an MTS assay. The CC50 values were calculated by using the exponential form of the median effect equation as mentioned below for calculation of EC50.
# Analysis of Drug Combination Effects. For determination of CI values, drugs were diluted in a fixed ratio and multiple ratios were analyzed. The drug serial dilutions spanned a range of concentrations near the EC50 value of each compound, so that equivalent antiviral activities could be compared. Concentration-response curves were estimated for each individual drug and every combination using the median-effect equation. The equation was fit using a nonlinear regression routine (Proc Nlin) in PC SAS version 8.01 (SAS Institute Inc., SAS Version 8.01, Cary, N.C.: SAS Institute Inc., 1990).
# In this equation, Fa stands for “fraction affected,” and represents the fraction of the viral load that has been inactivated. […] ED50 is drug concentration that is expected to reduce the amount of virus by 50%, and m is a parameter that reflects the slope of the concentration-response curve.
# To assess antiviral effects of different drug combination treatments, combination indices (CIs) were calculated according to Chou and Rideout. The combination index was computed as CI=[D]1/[Dm]1+[D]2/[Dm]2
# In this equation [Dm]1 and [Dm]2 are the concentrations of drugs that would individually produce a specific level of effect, while [D]1 and [D]2 are the concentrations of drugs in combination that would produce the same level of effect.
# Theoretically, additivity is implied if the CI is equal to one, synergy if the CI is less than one, and antagonism if the CI is greater than one. […] At best, we can construct a range that contains the likely values for the CI, given the noise in the data. In this report, these ranges are reported in parentheses next to each point estimate of the CI. […] If the range fell entirely above 1.0, we would infer antagonistic behavior. If the range were to include 1.0, we would infer additivity.
# In carrying out the combination experiments below, the EC50 for Compound 1 and each comparator compound was determined during the course of each study, and used in the subsequent data analysis.
# [1] = Compound 1 + named drug, EC50 ratio 1:1 (Compound 1:comparator)
# [2] = Compound 1 + named drug, EC50 ratio 1:2.5 (Compound 1:comparator)
# [3] = Compound 1 + named drug, EC50 ratio 2.5:1 (Compound 1:comparator)
SMILES,Combination Indices at % HIV Inhibition (Confidence Interval) 50% [1],Combination Indices at % HIV Inhibition (Confidence Interval) 75% [1],Combination Indices at % HIV Inhibition (Confidence Interval) 90% [1],Combination Indices at % HIV Inhibition (Confidence Interval) 50% [2],Combination Indices at % HIV Inhibition (Confidence Interval) 75% [2],Combination Indices at % HIV Inhibition (Confidence Interval) 90% [2],Combination Indices at % HIV Inhibition (Confidence Interval) 50% [3],Combination Indices at % HIV Inhibition (Confidence Interval) 75% [3],Combination Indices at % HIV Inhibition (Confidence Interval) 90% [3],Overall Result (combined anti-HIV effect) (Compound 1 + named drug),pEC50,Combined effect at 90% inhibition level (Compound 1 + named drug),Combined effect at the 50 and 75% inhibition levels (Compound 1 + named drug)
"Cc1cn([C@H]2C=C[C@@H](CO)O2)c(=O)[nH]c1=O [Stavudine, stavudine]","0.52 (0.40, 0.64)","0.60 (0.41, 0.80)","0.75 (0.36, 1.14)","0.38 (0.31, 0.45)","0.37 (0.28, 0.46)","0.40 (0.23, 0.56)","0.69 (0.51, 0.88)","0.78 (0.49, 1.07)","0.92 (0.36, 1.48)",Moderate-,7.14,,
"Nc1ccn([C@@H]2CS[C@H](CO)O2)c(=O)n1 [Lamivudine, lamivudine]","0.75 (0.45, 1.05)","0.79 (0.35, 1.23)","0.90 (0.11, 1.69)","0.13 (0.10, 0.16)","0.21 (0.16, 0.27)","0.39 (0.21, 0.58)","0.14 (0.10, 0.17)","0.26 (0.18, 0.33)","0.49 (0.22, 0.75)",,,,
"COc1cnc(-n2cnc(C)n2)c2[nH]cc(C(=O)C(=O)N3CCN(C(=O)c4ccccc4)CC3)c12 [Compound 1, 1-Benzoyl-4-[2-[4-methoxy-7-(3-methyl-1H-1,2,4-triazol-1-yl)-1H-pyrrolo[2,3-c]pyridin-3-yl]-1,2-dioxoethyl]-piperazine]",,,,,,,,,,,9.52 to 10.00,,
"CC(C)c1nc(CN(C)C(=O)N[C@H](C(=O)N[C@@H](Cc2ccccc2)C[C@H](O)[C@H](Cc2ccccc2)NC(=O)OCc2cncs2)C(C)C)cs1 [Ritonavir, ritonavir]","0.60 (0.49, 0.72)","0.61 (0.45, 0.77)","0.70 (0.41, 0.99)","0.54 (0.45, 0.63)","0.58 (0.44, 0.71)","0.73 (0.46, 1.00)","0.23 (0.20, 0.26)","0.20 (0.17, 0.24)","0.19 (0.14, 0.24)",Synergistic,8.15,,
c1cc(CN2CCCNCCNCCCNCC2)ccc1CN1CCCNCCNCCCNCC1 [AMD-3100],"0.44 (0.29, 0.60)","0.62 (0.31, 0.92)","0.98 (0.21, 1.76)","0.56 (0.42, 0.70)","0.54 (0.35, 0.73)","0.66 (0.29, 1.02)","0.52 (0.36, 0.68)","0.61 (0.35, 0.88)","0.77 (0.24, 1.31)",,8.30,tendency to additivity,strongly synergistic
"Cc1c(O)cccc1C(=O)N[C@@H](CSc1ccccc1)[C@H](O)CN1C[C@H]2CCCC[C@H]2C[C@H]1C(=O)NC(C)(C)C [Nelfinavir, nelfinavir]","0.39 (0.34, 0.44)","0.47 (0.39, 0.56)","0.58 (0.41, 0.74)","0.41 (0.32, 0.50)","0.81 (0.57, 1.05)","1.61 (0.84, 2.37)","0.12 (0.09, 0.15)","0.32 (0.22, 0.42)","0.87 (0.38, 1.35)",Additive-,8.52,,
"Nc1nc(NC2CC2)c2ncn([C@H]3C=C[C@@H](CO)C3)c2n1 [Abacavir, abacavir]","0.69 (0.49, 0.89)","0.77 (0.46, 1.09)","0.87 (0.30, 1.44)","0.56 (0.45, 0.67)",,"0.48 (0.27, 0.68)","0.10 (0.05, 0.14)","0.27 (0.16, 0.39)",,Additive-,6.49,,
"COC(=O)N[C@H](C(=O)N[C@@H](Cc1ccccc1)[C@@H](O)CN(Cc1ccc(-c2ccccn2)cc1)NC(=O)[C@@H](NC(=O)OC)C(C)(C)C)C(C)(C)C [Atazanavir, atazanavir]","0.53 (0.46, 0.60)",,"0.90 (0.64, 1.17)",,"0.49 (0.29, 0.69)","1.17 (0.38, 1.95)","0.34 (0.26, 0.42)","0.56 (0.38, 0.74)","0.97 (0.46, 1.48)",Additive-,9.15,,
"CC(C)(C)NC(=O)[C@@H]1C[C@@H]2CCCC[C@@H]2CN1C[C@@H](O)[C@H](Cc1ccccc1)NC(=O)[C@H](CC(N)=O)NC(=O)c1ccc2ccccc2n1 [Saquinavir, saquinavir]","0.31 (0.28, 0.33)","0.31 (0.28, 0.35)","0.32 (0.26, 0.38)","0.60 (0.52, 0.67)","0.67 (0.56, 0.79)","0.77 (0.56, 0.97)","0.39 (0.33, 0.45)","0.59 (0.46, 0.72)","0.90 (0.58, 1.22)",Synergistic,8.30,,
"Nc1ccn([C@H]2CC[C@@H](CO)O2)c(=O)n1 [Zalcitabine, zalcitabine]","0.58 (0.46, 0.69)","0.61 (0.43, 0.78)","0.69 (0.39, 1.00)",,"0.56 (0.44, 0.68)","0.65 (0.43, 0.86)","0.24 (0.22, 0.26)","0.18 (0.16, 0.20)","0.14 (0.12, 0.17)",Synergistic,7.47,,
